Experimental data from US8821568B2, “Implant modified with non-hydroxylated vitamin D precursors” (Numat Biomedical S.L., priority 2008, dated 2014).

Assays:
[1] = tested on: MC3T3-E1 cells; assay: ALP activity in cell monolayer on coated titanium implants; assay type: cell-based, mouse; conditions: Ti implants, day 21
Experimental: To test the effect of the surface modification, 96-well plates were used. Ti disks were placed into the wells and treatments and UV-activation were performed over there. Cells grown onto untreated polystyrene tissue culture plastic (TCP) were added as a control for all the experiments. Cells were seeded at a density of 30,000 cells/cm^2 and they were maintained in α-MEM supplemented with 10% FCS and antibiotics. Culture media was collected after 48 hours, to test cytotoxicity and the production of the hydroxylated form of vitamin D, 25-D3. Cells were harvested after two days of culture using Trizol reagent (Roche Diagnostics, Mannheim, Germany), to analyze gene expression of several osteoblast differentiation markers and enzymes involved in vitamin D synthesis using real-time RT-PCR. On the other hand, MC3T3-E1 cells were harvested after 21 days to measure calcium content and ALP activity in the cell monolayer.
Cell monolayer was collected at 21 cell differentiation days and PBS 0.1% Triton X-100 was added to solubilize proteins. Cell lysates were put into freeze/thaw cycles (liquid nitrogen and 37° C. water bath) to improve protein recovery. After centrifugation at 33,000 g for 15 min at 4° C., supernatants acquired were assayed for ALP activity, calcium content and total protein determination. ALP activity was calculated by measuring the cleavage of p-Nitrophenyl Phosphate (pNPP) (Sigma, St. Louis, Mo., USA) in a soluble yellow end product which absorbs at 405 nm. A volume of 100 μl of this substrate was used in combination with 25 μl of each sample supernatant or standard point. The standard curve was prepared from calf intestinal alkaline phosphatase (CIAP, 1 U/μl) (Promega, Madison, Wis., USA) by mixing 1 μl from the stock CIAP with 5 ml of alkaline phosphatase buffer (1:5000 dilution), and then making 1:5 serial dilutions. Once the reaction was carried out, after 30 min in dark at room temperature, it was stopped with the addition of 50 μl of 3 M sodium hydroxide. At this point, absorbance was read at 405 nm.
Total protein was determined using a BCA protein assay kit (Pierce, Rockford, Ill., USA). For the analysis, cell supernatants were diluted 1:1 in PBS 0.1% Triton X-100. Standard curve and samples were analyzed as described by the manufacturer and reading the absorbance at 562 nm.

[2] = HPLC quantification of 7-DHC and vitamin D3 on coated substrates before and after UV irradiation; assay type: physicochemical; conditions: for m7-DHC (%): 100* m7-DHC/m7-DHC^0; for ηD3 (Vit D3 product yield): moles D3 after vs moles 7-DHC before irradiation
Experimental: Substrates (polystyrene, 96 well plate; or titanium, polished titanium disks, 6.2 mm diameter, 2 mm height, inserted in a 96 well plate) were covered with 0.2 nmol of 7-DHC and Vitamin E (7-DHC: VitE=20:1, m:m) by dropping 10 μl of a 7-DHC/VitE solution in absolute ethanol. After leaving the solvent to evaporate for 15 min, samples were UV irradiated for 15 min at 302 nm. The amounts of 7-DHC and D3 present in the surfaces were quantified by HPLC. Results were compared with substrates without Vit E and with non-irradiated surfaces. Pure ethanol was used as control for all groups. Sunlight exposure was avoided for all surfaces.
The coating of each surface was extracted by adding 100 μl of ‘methanol/acetonitrile/tetrahydrofurane/water’ (67:16:2:15, v:v) to each well and shaking the plate for 2 min at 20 rpm. The content of three replicate wells was mixed to give a sample of ≈300 μl. An aliquot of 100 μl of the sample was injected in the HPLC system. Two replicate samples were prepared and analyzed for each group.
The analysis were carried out using a Waters liquid chromatographic system (Milford, Mass., USA), equipped with a refrigerated automatic injector WISP700 and a 600 pump system, connected to a Waters 996 photodiode array (PDA) detector. The software Empower was used for instrument control and data analysis. Detection was carried out at 282 nm.
A Nova Pak C18 column (Waters) was used to separate sample components before detection. The column temperature was set to 30° C. Two solvents, A: ‘methanol/acetonitrile/tetrahydrofurane/water (67:16:2:15, v:v), and B: ‘methanol/acetonitrile/tetrahydrofurane’ (75:20:5, v:v) were used in gradient elution mode as the mobile phase. Solvents A and B were vacuum-filtered through a Nylon membrane (0.45 μm pore diameter) and degassed before use. The mobile phase flow rate was 1 ml·min^−1. The binary gradient used was as follows: from 5% B to 90% B in three minutes, held for 9.5 min at 90% B, from 90% B to 5% B in one minute and equilibrated between injections at the initial conditions for 5 min (total run time=15 min+5 min equilibration between injections).
Quantification was performed by integration of the peak area of the corresponding analyte and interpolation of the peak area in 7-DHC or Vit D3 standard curves.

[3] = Polystyrene, irradiated, UV 302 nm 15 min
[4] = Titanium, irradiated, UV 302 nm 15 min

CC(C)CCC[C@@H](C)[C@H]1CC[C@H]2C3=CC=C4C[C@@H](O)CC[C@]4(C)[C@H]3CC[C@]12C [7-DHC, 7-dehydrocholesterol]
ALP activity ([1]; UV-treated vs UV-untreated group): significant higher ALP activity
ALP activity ([1]; UV-untreated, percentage of ethanol UV-untreated group set to 100%, mean±SEM): 44.75±3.50%
m7-DHC [2, 3]: 29.2 ± 2.0 ng/well
mD3 [2, 3]: 11.8 ± 0.4 ng/well
m7-DHC (%) [2, 3]: 29%
ηD3 (Vit D3 product yield) [2, 3]: 13.1 ± 0.4%
m7-DHC ([2]; Polystyrene, non irradiated): 90.1 ± 2.9 ng/well
m7-DHC (%) ([2]; Polystyrene, non irradiated): 88%
m7-DHC [2, 4]: 42.1 ± 3.4 ng/well
mD3 [2, 4]: 16.4 ± 0.7 ng/well
m7-DHC (%) [2, 4]: 39%
ηD3 (Vit D3 product yield) [2, 4]: 16.4 ± 0.7%
m7-DHC ([2]; Titanium, non irradiated): 99.9 ± 3.0 ng/well
m7-DHC (%) ([2]; Titanium, non irradiated): 92%
